From ChEMBL document CHEMBL1201862, “PubChem BioAssay data set” (2004)
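Dose response: 5 concentrations. Exposure: 48 h. Format: 96-well plates. Endpoint: linear interpolation; highest concentration if not reached. GI50 = concentration required for 50% inhibition of growth.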 Calls of active or inactive are those of the source. Rule as the data show it: active = GI50 up to about 1.1 µM and inactive = higher.

Legend:
Experiment in all cases: DTP human tumour cell line panel, 48 h
[1] = system: 786-0
[2] = system: MDA-MB-231
[3] = system: Hs-578T
[4] = system: MDA-MB-435
[5] = system: DU-145
[6] = system: MDA-N
[7] = system: T47D
[8] = system: BT-549
[9] = system: RXF 631

Measured: GI50

COC(=O)C#Cc1cccc(OC)c1OC
inactive: [1] 43.8 µM | [2] 62.8 µM | [3] 37.3 µM | [4] 33.7 µM | [5] 88.1 µM | [6] 40.7 µM | [7] > 100 µM | [8] 62.2 µM

CC1(C)C(O)C[C@@H](O)[C@@]2(C)C1CC[C@]1(C)C2C[C@@H](O)[C@@H]2C([C@@]3(C)CC[C@@H](C(C)(C)O)O3)CCC21C (stereo partly specified)
inactive: [1] 15.3 µM

CCCCCCCCCCOC(=O)NCCC
inactive: [1] 28.1 µM | [9] 27.6 µM

O=C(O[C@@H](/C=C/c1ccccc1)P1(=O)N(Cc2ccccc2)[C@H]2CCCC[C@@H]2N1Cc1ccccc1)c1ccccc1
inactive: [1] 4.32 µM | [2] 2.29 µM | [3] 13.6 µM | [4] 3.21 µM | [5] 6.21 µM | [6] 4.22 µM | [7] 2.44 µM | [8] 5.96 µM

CCOC(=O)c1csc(NC(=O)CCN(CC)CC)n1
inactive: [2] 50.5 µM | [4] 38.3 µM | [5] 40.2 µM | [6] 45.5 µM | [7] 54.7 µM

COc1nc(Cl)c(Cl)c(Cl)n1.COc1nc(Cl)nc(Cl)c1Cl
inactive: [1] 14.2 µM | [2] 17.2 µM | [3] 3.91 µM | [4] 2.97 µM | [5] 2.35 µM | [7] 2.29 µM | [8] 9.93 µM
